Measured values reported in paper PMC6017089, “Discovery of a Manduca sexta Allatotropin Antagonist from a Manduca sexta Allatotropin Receptor Homology Model” (Molecules : A Journal of Synthetic Chemistry and Natural …, 2018).
Several values for one entry are separate records, joined by “and”; a condition that tells them apart may be missing. Equal values may be shown once. Entries after “also recorded” stand apart in the source; their conditions may differ. Read-outs that look alike come from different tables or passages of the source. Non-standard residues stand in square brackets, D forms with d. Residues, ends and D or L forms follow the SMILES beside them. No end group written: not given here. *: point of attachment. Phe(4-Cl) = N[C@@H](Cc1ccc(Cl)cc1)C(=O)O; Phe(4-Me) = Cc1ccc(C[C@H](N)C(=O)O)cc1; Ala(cPr) = N[C@@H](CC1CC1)C(=O)O; Isobutyryl = CC(C)C(=O)*

Assays:
[1] = target: T1, corpora allata (CA) of adult female M. sexta (Manduca sexta, UniProt F1CZQ1); assay: Stimulation of JH biosynthesis in vitro by corpora allata; type: cell-based; settings: for Stimulation of JH Biosynthesis EC50 (95% CI) / EC50: pair of CA with corpora cardiaca from day 3 females, 3 h at 30 °C in medium 199 pH 7.2, total JH II + JH III by GC-MS/MS, 9–13 repeats per concentration, 95% CI in brackets; for Stimulation of JH Biosynthesis: Stimulation at 1 μM: peptide 1 μM, CA from day 3 females, 3 h at 30 °C, mean ± SEM, repeat number in brackets, versus control CA without peptide; for fold less potent than Manse-AT (EC50, stimulation of JH biosynthesis): ratio of EC50 values to Manse-AT
T1 sequence (F1CZQ1 1-457): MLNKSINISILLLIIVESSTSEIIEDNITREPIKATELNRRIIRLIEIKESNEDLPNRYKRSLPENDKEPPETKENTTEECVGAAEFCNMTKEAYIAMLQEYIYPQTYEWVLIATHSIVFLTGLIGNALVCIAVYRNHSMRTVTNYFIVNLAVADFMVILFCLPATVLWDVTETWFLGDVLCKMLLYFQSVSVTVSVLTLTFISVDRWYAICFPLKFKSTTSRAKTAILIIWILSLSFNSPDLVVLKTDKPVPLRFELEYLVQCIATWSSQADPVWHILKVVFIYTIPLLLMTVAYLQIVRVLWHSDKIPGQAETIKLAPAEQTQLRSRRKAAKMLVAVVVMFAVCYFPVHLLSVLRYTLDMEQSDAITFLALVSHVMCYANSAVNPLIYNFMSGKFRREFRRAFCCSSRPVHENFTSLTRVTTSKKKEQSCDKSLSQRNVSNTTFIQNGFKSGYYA
Experimental: (§1) On the day of adult emergence (day 0), females were marked and maintained in the wooden chamber until used. The assays for JH biosynthesis were performed using CA from day 3 females. A pair of CA with corpora cardiaca attached were incubated for 3 h at 30 °C in 100 µL of medium 199 (GIBCO) with Hanks’ salts, L-glutamine, 25 mM HEPES buffer (pH 7.2) and 2% Ficoll in the dark with gentle shaking. Compounds were dissolved in medium 199 for assay as described previously and used on the same day that the peptides were prepared. After incubation, 200 µl n-hexane containing 20 ng of citronellol as an internal standard was mixed with the incubation medium and the mixture was centrifuged at 2500× g for 5 min. The organic phases (upper layer) were removed and transferred to the analyzed vials. For M. sexta, it is known that JH II and JH III are predominantly made in adult (they contribute 99% of total JH, together). The change of total JH II and JH III titer was used to estimate the effects of JH biosynthesis in this study. The quantitative assay for JH II and JH III titer was determined by GC-MS/MS as described previously. The retention time of JH II and JH III was 11.16 min and 10.36 min, respectively. The quantification transition for JH II was 107→105.4 (collsion energy: 45 eV). Its confirmation transitions were 81→79.6 (collsion energy: 40 eV), 121→119 (collsion energy: 40 eV), 121→104.9 (collsion energy: 15 eV) and 121→92.9 (collsion energy: 10 eV), respectively. For JH III, the quantification transition was […] (collsion energy: 10 eV), the confirmation transitions were 81→79.1 (collsion energy: 5 eV), 94.9→67.1 (collsion energy: 10 eV), 120.9→93 (collsion energy: 10 eV) and 120.9→105.1 (collsion energy: 15 eV), respectively. Compounds were dissolved in medium 199 for assay and used on the same day that the peptides were prepared. Each data point on the dose-response figure represents replicate incubations of 9–13 experimental CA compared to control CA (i.e., no peptide added). EC50 (stimulator concentration50 defined as the concentration of stimulator that provokes a response halfway between the baseline and maximum response) values of Manse-AT and analogs were calculated from the dose-response curves.
(§2) Data presented as percentages were log-transformed before statistical analyses. Data were analysed using a one-way analysis of variance (ANOVA) with a Dunnett’s multiple comparison test as the post hoc determination of significance using Prism Graph Pad version 5.0 (GraphPad Software, San Diego, CA, USA). Dose-response curves were also prepared using the computer program GraphPad Prism. Values are expressed as mean ± standard errors (S.E.M.) with N indicating the number of samples measured.

[2] = target: T2, corpora allata (CA) of adult female M. sexta stimulated with Manse-AT (Manduca sexta, UniProt F1CZQ1); type: cell-based
T2 sequence (F1CZQ1 1-457): T1 sequence (F1CZQ1 1-457)
Experimental: as §1
Antagonistic effects of Manse-AT antagonists were measured with the compound mixture solutions (varying concentrations of the antagonist added together with Manse-AT) compared with the stimulation effects of Manse-AT. Dose response curves of antagonist on the inhibition of JH stimulation of Manse-AT was obtained using different concentrations of antagonist mixed with 1 nM Manse-AT (Supplementary Materials, Figure S1). Each data point on the dose-response figure was calculated using the Formula (1). (RManse-AT − RMixture)/(RManse-AT − RControl) (1)
RManse-AT is the average JH biosynthesis rate of 1 nM Manse-AT, RMixture is the rate of mixture contained different concentration antagonist and 1 nM Manse-AT, RControl is the average rate of medium without any peptides.
as §2

[3] = read-out: Antagonistic Effects on JH Biosynthesis IC50 (95% CI); antagonist at varying concentrations mixed with 1 nM Manse-AT; CA from day 3 females, 3 h at 30 °C; JH II + JH III by GC-MS/MS; 9–13 repeats per concentration; 95% CI in brackets
[4] = ratio of IC50 values to Manse-AT (10–13)
[5] = antagonist at varying concentrations mixed with 1 nM Manse-AT; CA from day 3 females, 3 h at 30 °C; JH II + JH III by GC-MS/MS; 9–13 repeats per concentration; 95% CI in brackets

Molecule: C[C@H](N)C(=O)N[C@@H](CCCNC(=N)N)C(=O)NCC(=O)N[C@@H](Cc1ccccc1)C(N)=O [Manse-AT (10–13)] (H-ARGF-NH2)
- Stimulation of JH Biosynthesis EC50 (95% CI) [1]: cannot be calculated; also recorded: No effect
- Stimulation of JH Biosynthesis: Stimulation at 1 μM [1]: 8.1± 17.6 (13) %
- IC50 [2, 3]: 0.9 nM

Molecule: N=C(N)NCCC[C@H](NC(=O)CN)C(=O)NCC(=O)N[C@@H](Cc1ccccc1)C(N)=O [analog 1] (H-GRGF-NH2)
- IC50 [2, 3]: 1.2 nM

Molecule: CC(C)C[C@H](N)C(=O)N[C@@H](CCCNC(=N)N)C(=O)NCC(=O)N[C@@H](Cc1ccccc1)C(N)=O [analog 2] (H-LRGF-NH2)
- IC50 [2, 3]: 35.4 nM

Molecule: CC(C)C(=O)N[C@@H](CCCNC(=N)N)C(=O)NCC(=O)N[C@@H](Cc1ccccc1)C(N)=O [analog 3] (Isobutyryl-Arg-Gly-Phe-NH2)
- IC50 ([2]; antagonist at varying concentrations mixed with 1 nM Manse-AT; CA from day 3 females, 3 h at 30 °C; JH II + JH III by GC-MS/MS; 9–13 repeats per concentration; 95% CI in brackets; read-out: Antagonistic Effects on JH Biosynthesis IC50 (95% CI)): 26.1 nM
- fold less active than the lead Manse-AT (10–13) (IC50, antagonistic effect) [2, 4]: ~30 fold

Molecule: C[C@H](N)C(=O)N[C@@H](CCCNC(=N)N)C(=O)N[C@@H](C)C(=O)N[C@@H](Cc1ccccc1)C(N)=O [analog 7] (H-ARAF-NH2)
- IC50 [2, 3]: 17.5 nM

Molecule: C[C@H](N)C(=O)N[C@@H](CCCNC(=N)N)C(=O)N[C@@H](CC1CC1)C(=O)N[C@@H](Cc1ccccc1)C(N)=O [analog 8] (H-AR[Ala(cPr)]F-NH2)
- fold less active than the lead Manse-AT (10–13) (IC50, antagonistic effect) [2, 4]: ~1145 fold

Molecule: C[C@H](N)C(=O)N[C@@H](CCCNC(=N)N)C(=O)NCC(=O)N[C@@H](Cc1ccc(O)cc1)C(N)=O [analog 10] (H-ARGY-NH2)
- IC50 [2, 3]: 1 nM

Molecule: Cc1ccc(C[C@H](NC(=O)CNC(=O)[C@H](CCCNC(=N)N)NC(=O)[C@H](C)N)C(N)=O)cc1 [analog 11] (H-ARG[Phe(4-Me)]-NH2)
- IC50 [2, 3]: 8.4 nM

Molecule: C[C@H](N)C(=O)N[C@@H](CCCNC(=N)N)C(=O)NCC(=O)N[C@@H](Cc1ccc(Cl)cc1)C(N)=O [analog 12] (H-ARG[Phe(4-Cl)]-NH2)
- IC50 [2, 3]: 9.4 nM

Molecule: AMMTARGF-NH2 [Manse-AT (6–13) [Ala^1]]
- Stimulation of JH biosynthesis at 10 µM ([1]; concentration of 10 µM, adult female CA in vitro): completely inactive
- Stimulation of JH Biosynthesis EC50 (95% CI) [1]: No effect

Molecule: Ala-Ala-Gly-Phe-NH2 [analog 5, Manse-AT (10–13) analog, Arg replaced with Ala]
- Antagonistic Effects on JH Biosynthesis IC50 (95% CI) [2, 5]: no antagonistic effect

Molecule: Ala-Arg-Gly-Ala-NH2 [analog 9, Manse-AT (10–13) analog, Phe replaced with Ala]
- Antagonistic Effects on JH Biosynthesis IC50 (95% CI) [2, 5]: inactive; also recorded: No effect

Molecule: Ala-Leu-Gly-Phe-NH2 [analog 6, Manse-AT (10–13) analog, Arg replaced with Leu]
- Antagonistic Effects on JH Biosynthesis IC50 (95% CI) [2, 5]: no antagonistic effect

Molecule: Arg-Gly-Phe-NH2 [Manse-AT (11–13), truncated tripeptide analog of Manse-AT]
- Stimulation of JH Biosynthesis EC50 (95% CI) [1]: cannot be calculated; also recorded: No effect
- Stimulation of JH Biosynthesis: Stimulation at 1 μM [1]: 8.3 ± 16.4 (9) %
- Antagonistic Effects on JH Biosynthesis IC50 (95% CI) [2, 5]: did not possess any antagonistic effect; also recorded: No effect

Molecule: GFKNVEMMTARGF-NH2 [Manse-AT, Manduca sexta allatotropin]
- EC50 [1]: 0.9 nM
- Stimulation of JH Biosynthesis: Stimulation at 1 μM [1]: 426.6 ± 86.3 (9) %

Molecule: H-EMMTARGF-NH2 [Manse-AT (6–13)]
- EC50 [1]: 18.4 nM
- Stimulation of JH Biosynthesis: Stimulation at 1 μM [1]: 600% and 600.5 ± 98.5 (9) %
- fold less potent than Manse-AT (EC50, stimulation of JH biosynthesis) [1]: about 20 fold

Molecule: H-MMTARGF-NH2 [Manse-AT (7–13)]
- EC50 [1]: 180 nM and 228 nM
- Stimulation of JH Biosynthesis: Stimulation at 1 μM [1]: 232.9% and 232.9 ± 33.7 (9) %
- fold less potent than Manse-AT (EC50, stimulation of JH biosynthesis) [1]: 200 fold

Molecule: H-MTARGF-NH2 [Manse-AT (8–13)]
- EC50 [1]: 2490 nM
- Stimulation of JH Biosynthesis: Stimulation at 1 μM [1]: 133.1 ± 22.3 (9) %

Molecule: TARGFa [Manse-AT (9–13), truncated analog of Manse-AT]
- Stimulation of JH Biosynthesis EC50 (95% CI) [1]: cannot be calculated; also recorded: No effect
- Stimulation of JH Biosynthesis: Stimulation at 1 μM [1]: 10.6 ± 21.0 (11) %
